From patent US4868162A, “Antiviral agent” (Teijin Limited, priority 1985, dated 1989) come the findings set out here.

Converted amounts (≈) assume the structure as drawn.

A short description of data set [1]: in vitro. The class given is cell-based, African green monkey. Particulars: monkey, vero cells. As to the method:
Vero cells were cultured in Eagle minimum 1 medium (MEM) containing 5% calf serum (CS) and were made to proliferate after the monolayer cell culture method. […] After 48-hour culture in 2% CS-MEM medium was over, the effective dose of each test compound which suppressed the formation of plaques by 50% in number (EDs) and the minimum toxic dose (MTD) which caused the cytotoxicity were measured.

In data set [2] the test system is herpes simplex type I virus (KOS strain). As to the kind of experiment: Plaque reduction in herpes simplex type I infected Vero cells (Example 2, 10,000 pfu/ml). The class given is cell-based. The conditions noted are these: HSV-1 KOS 10,000 pfu/ml; for EC50: Human alphaherpesvirus 1, 48-hour culture, read-out: ED50 (effective dose which suppressed the formation of plaques by 50% in number); for EC50 / Therapeutic index MTD/ED50: Vero cells; for Therapeutic index MTD/ED50: 2880 min. How it is done: Vero cells were cultured in Eagle minimum
1 medium (MEM) containing 5% calf serum (CS) and were made to proliferate after the monolayer cell culture method. The cultured cells were inoculated with 0.1 ml of herpes simplex type I virus (KOS strain) of 10,000 pfu/ml concentration, which were left to be adsorbed by the host cells at 37° C. for 1 hour. The test compounds, inclusive of the compounds of this invention, were added to the cultures respectively in concentration of 0.001~1,000 μg/ml.
After 48-hour culture in 2% CS-MEM medium was over, the effective dose of each test compound which suppressed the formation of plaques by 50% in number (EDs) and the minimum toxic dose (MTD) which caused the cytotoxicity were measured.

The test system is the same in data set [3]. As to the kind of experiment: Plaque reduction in herpes simplex type I infected Vero cells (Example 3, 2,000 pfu/ml). The class given is cell-based. Particulars: for Therapeutic index MTD/ED50: HSV-1 KOS 2,000 pfu/ml, 2880 min; for EC50: Human alphaherpesvirus 1, HSV-1 KOS 2,000 pfu/ml, 48-hour culture, read-out: ED50 (effective dose which suppressed the formation of plaques by 50% in number). How it is done: (§1) Vero cells. were cultured in Eagle essential medium (MEM) containing 5% fetal calf serum (FCS) and were made to proliferate after the monolayer cell culture method. The cells were inoculated with 0.1 ml of herpes simplex type I virus (KOS strain) of 2,000 pfu/ml concentration, which were made to be adsorbed by the host cells at 37° C. for 1 hour. The virus that were not yet adsorbed were washed away with a 2% CS-MEM medium and then test compounds, inclusive of the compounds of this invention, were added to the cultures respectively in concentration of 0.01~1,000 μg/ml.
(§2) After 48-hour culture in 2% CS-MEM medium was over, the effective dose of each test compound which suppressed the formation of plaques by 50% in number (ED50) and the minimum toxic dose (MTD) which caused the cytotoxicity were measured.

The nature of data set [4]: in vitro. Particulars: monkey, vero cells. Type of data set: cell-based, African green monkey. As to the method: as §1, §2
The source holds these as a separate data set.

The test system of data set [5] is herpes simplex type I virus (KOS strain). As to the kind of experiment: Plaque reduction in herpes simplex type I infected Vero cells (Example 1, 1,000 pfu/ml). The conditions noted are these: for Therapeutic index MTD/ED50: HSV-1 KOS 1,000 pfu/ml, 2880 min; for EC50: Human alphaherpesvirus 1, HSV-1 KOS 1,000 pfu/ml, 48-hour culture, read-out: ED50 (effective dose which suppressed the formation of plaques by 50% in number). Type of data set: cell-based. As to the method: (§3) Vero cells were cultured in Eagle minimum essential medium (MEM) containing 5% calf serum (CS) and were made to proliferate by means of monolayer cell culture. The cells were inoculated with 0.1 ml of herpes simplex type I virus (KOS strain) adjusted to 1,000 pfu/ml, which were allowed to hold on the host cells by adsorption for 1 hour at 37° C. Thereafter, the test compound, inclusive of the compounds of this invention, were added thereto respectively in concentration of 0.01~1,000 μg/ml.
(§4) After 48-hour culture in CS-MEM medium was over, the effective dose of each test compound which suppressed the formation of plaques by 50% in number (ED50) and the minimum toxic dose (MTD) which caused the cytotoxicity were measured.

Data set [6] is described as follows: Cytotoxicity, minimum toxic dose in Vero cells (Example 1). Type of data set: cell-based, African green monkey. Particulars: monkey. As to the method: as §3, §4

In data set [1], `CCCCCCCC(=O)OC[C@H]1O[C@@H](n2cc(F)c(=O)[nH]c2=O)C[C@@H]1OC(=O)CCCCCCC` [3',5'-dioctanoyl-5-fluoro-2'-deoxyuridine] displayed an MCC at 48 h of 100 µg/mL. For the same compound, in data set [2], the EC50 was determined as 0.018 µg/mL (≈ 0.0361 µM) and the “Therapeutic index MTD/ED50” value is reported as 5,600. Further, the “effective dose relative to that of Acyclovir for the same effect” value in data set [2] (fraction of Acyclovir effective dose) was “about 1/400”.

Regarding `Nc1nc2c(ncn2COCCO)c(=O)[nH]1` [9-(2-hydroxyethoxymethyl)guanine, reference compound], the “Therapeutic index MTD/ED50” value was 279 in data set [3], 140 in data set [2] and 1,000 in data set [5]. Moreover, the EC50 in data set [3] amounted to 3.36 µg/mL (≈ 14.9 µM); in data set [2] it was 7.26 µg/mL (≈ 32.2 µM); in data set [5] it was 0.991 µg/mL (≈ 4.4 µM). The MCC at 48 h in data set [1], in data set [4] and in data set [6] (vero cells) was 1000 µg/mL throughout.

As to `CCCCCCCC(=O)OC[C@H]1O[C@@H](n2cc(I)c(=O)[nH]c2=O)C[C@@H]1OC(=O)CCCCCCC` [3',5'-dioctanoyl-5-iodo-2'-deoxyuridine], in data set [3], the “Therapeutic index MTD/ED50” value was determined as 35 and the EC50 is 0.285 µg/mL (≈ 0.47 µM). The MCC at 48 h in data set [4] amounted to 10 µg/mL.

As to `CCCCCCCCCC(=O)OC[C@H]1O[C@@H](n2cc(F)c(=O)[nH]c2=O)C[C@@H]1OC(=O)CCCCCCCCC` [3',5'-didecanoyl-5-fluoro-2'deoxyuridine, 3',5'-didecanoyl-5-fluoro-2'-deoxyuridine], the MCC at 48 h in data set [1] is 100 µg/mL. Also, in data set [2], the EC50 turned out to be 0.038 µg/mL (≈ 0.0685 µM) and the “Therapeutic index MTD/ED50” value is listed as 2,600.

As to `O=C(OC[C@H]1O[C@@H](n2cc(F)c(=O)[nH]c2=O)C[C@@H]1OC(=O)c1ccccc1)c1ccccc1` [3',5'-dibenzoyl-5-fluoro-2'-deoxyuridine], in data set [3], the “Therapeutic index MTD/ED50” value turned out to be 893 and the EC50 was 0.112 µg/mL (≈ 0.246 µM). In data set [4], this compound yielded an MCC at 48 h of 100 µg/mL.

For `CCCCCCCCCCCCCCCC(=O)OC[C@H]1O[C@@H](n2cc(F)c(=O)[nH]c2=O)C[C@@H]1OC(=O)CCCCCCCCCCCCCCC` [3',5'-dihexadecanoyl-5-fluoro-2'-deoxyuridine], in data set [5], the “Therapeutic index MTD/ED50” value is 2,000 and the EC50 turned out to be 0.077 µg/mL (≈ 0.106 µM). In addition, the MCC at 48 h in data set [6] (vero cells) was found to be 150 µg/mL.

Take `O=c1[nH]c(=O)n([C@H]2C[C@H](O)[C@@H](CO)O2)cc1F` [5-fluoro-2'-deoxyuridine, reference compound]: in data set [5], the “Therapeutic index MTD/ED50” value worked out at 10 and the EC50 was 0.01 µg/mL (≈ 0.0406 µM). Also, the MCC at 48 h in data set [6] (Vero cells, Example 1, 48-hour culture, read-out: MTD (minimum toxic dose which caused the cytotoxicity)) was found to be 0.1 µg/mL.

Consider `CCCCCCCCCCCCCC(=O)OC[C@H]1O[C@@H](n2cc(F)c(=O)[nH]c2=O)C[C@@H]1OC(=O)CCCCCCCCCCCCC` [3',5'-ditetradecanoyl-5-fluoro-2'-deoxyuridine], for which, in data set [5], the “Therapeutic index MTD/ED50” value is 2,000 and the EC50 amounted to 0.049 µg/mL (≈ 0.0735 µM). Moreover, the MCC at 48 h in data set [6] (vero cells) was found to be 100 µg/mL.

As for `CCCCCCCCCCCC(=O)OC[C@H]1O[C@@H](n2cc(F)c(=O)[nH]c2=O)C[C@@H]1OC(=O)CCCCCCCCCCC` [3',5'-didodecanoyl-5-fluoro-2'-deoxyuridine], in data set [5], the “Therapeutic index MTD/ED50” value is listed as 1,900 and the EC50 came out at 0.054 µg/mL (≈ 0.0884 µM). The MCC at 48 h in data set [6] (vero cells) was 100 µg/mL.
